Source: paper PMC8547495 (Journal of medicinal chemistry, 2021)
pIC50, pKd: −log10 of the molar value. “Also recorded” adds a separate entry of the source.

Tests used:
SARS-CoV-2 PLpro [1] = biological target: T1, SARS-CoV-2 PLpro (Severe acute respiratory syndrome coronavirus 2, UniProt P0DTD1); experiment: biochemical; format: binding
SARS-CoV-2 PLpro [2] = biological target: T1, SARS-CoV-2 PLpro; format: biochemical; conditions: for PLpro inhibition potency in words: compared with GRL0617 / parent
A549 cells = conditions: for cytotoxicity compared with 1: at 100 μM; for concentration below which cytotoxicity was not observed: under the antiviral assay conditions, A549-hACE2
in vivo = conditions: male, C57BL/6, mouse, ip, 50 mg/kg
[3] = microsomes, 2 μM
SARS-CoV-2 = conditions: at 33 μM, the maximum soluble dose; cited from earlier work
SARS-CoV-2 USA/WA1/2020 = format: cell-based; conditions: 20 μM, remdesivir 10 μM / 20 μM

For `Cc1ccc(NC2CNC2)cc1C(=O)N[C@H](C)c1cccc2ccccc12` [ZN-2-184], the “improvement in affinity relative to GRL0617” value (SARS-CoV-2 PLpro [1]; SPR) was “two-fold improvement in affinity” and the “gain in binding stabilization from SPR affinity” value (SARS-CoV-2 PLpro [1]; relative to GRL0617, engaging Site I or BL2 groove alone) was 0.57 kcal/mol.
For `CC[C@@H](NC(=O)c1cc(N(C)C2CNC2)ccc1C)c1cccc2ccccc12` [ZN-3-61], the “PLpro inhibition potency in words” value (SARS-CoV-2 PLpro [2]) was “significant decrease in potency”.
For `Cc1ccc(NC2CNC2)cc1C(=O)N[C@H](C)c1cccc(-c2ccc(CNC3CCCC3)s2)c1` [XR8-23], the “cytotoxicity compared with 1” value (A549 cells) was “more cytotoxic than 1”, the “concentration below which cytotoxicity was not observed” value (A549 cells) was < 10 µM and the Cmax (in vivo) was 12 to 13 µM.
With `CNC(=O)C[C@@H](NC(=O)c1cc(N(C)C2CNC2)ccc1C)c1cccc2ccccc12` [DY2-116] the “PLpro inhibition potency in words” value (SARS-CoV-2 PLpro [2]) was “almost completely inactive”, the pIC50 (SARS-CoV-2 PLpro [2]; read-out: Enzyme inhibition IC50, SARS-CoV-2 PLpro, Z-RLRGG-AMC substrate) was < 4.00 and the pKd (SARS-CoV-2 PLpro [1]) was < 3.00.
In the case of `Cc1ccc(NC2CNC2)cc1C(=O)N[C@H](C)c1cccc(-c2cccs2)c1` [ZN-3-80], the “human liver microsome stability in words” value [3] was “more stable than GRL0617”.
In the case of `COc1cc(CNC(=O)C2CCN(C(C)c3cccc4ccccc34)CC2)ccn1` (racemic) [rac5c], the “antiviral activity compared to remdesivir” value (SARS-CoV-2) is given as 60%.
For `Cc1ccc(N)cc1C(=O)N[C@H](CCO)c1cccc2ccccc12` [DY2-97], the “PLpro inhibition potency in words” value (SARS-CoV-2 PLpro [2]) was “almost completely inactive”.
With `Cc1ccc(NC2CNC2)cc1C(=O)N[C@H](C)c1cccc(-c2ccc(CN3CCCC3)s2)c1` [XR8-24] the “effect of treatment on viral RNA versus remdesivir” value (SARS-CoV-2 USA/WA1/2020) was “not significantly different from that of remdesivir; also recorded: not significantly different from the FDA-approved RdRp inhibitor remdesivir”, the “cytotoxicity compared with 1” value (A549 cells) was “more cytotoxic than 1” and the “concentration below which cytotoxicity was not observed” value (A549 cells) was < 50 µM. It also gave a Cmax (in vivo) of 12 to 13 µM.
